Where two headings read alike, the source gives them in different places.
Key:
A431 cells [1] = test: A431 cell proliferation assay (MTT), alone and in combination with Tarceva; assay type: cell-based; settings: for IC50: further studies, Example 9, Table 7A, read-out: A431 Cell Proliferation (IC50 Value); for A431 Cell Proliferation CI Value: combination with Tarceva, CI <0.8 indicates synergy, Example 9, Table 7B
Description: This example describes an assay that measures the ability of compounds to inhibit the proliferation of cultured cells. This assay can also be used to assess whether combining two or more compounds produces additive, synergistic, or antagonistic effects on cell growth.
On day 1, the cells were seeded at 10^3 cells per well in 100 μl of complete media under standard conditions.
On day 2, the cells were washed and 100 μl serum free media was added. The cells were then incubated for at least 2 hours before the addition of compound(s). 20 μl of compound(s) was added to the respective wells and incubated at 37° C., 5% CO2 for 72 hrs.
On day 5, 50 μl of the MTT dye solution was added to each well. The plates were incubated at 37° C., 5% CO2 for 1 hr. The media was then aspirated and the cells were resuspended in […] of DMSO. The plates were allowed to incubate for 5 min at room temperature with gentle shaking.
The absorbance in each well was determined at 560 nm using a Polarstar plate reader.
The A431 cell line over-expresses the EGF receptor, and was utilized to assess the ability of AD4 compounds to inhibit EGF-mediated cell proliferation.

A549 cells = test: DNA fragmentation (Cell Death Detection ELISA), measurement of apoptosis; settings: Homo sapiens
Description: The plates were allowed to incubate overnight @ 37° C., 5% CO2. On day 2, the media was removed from the plates and 160 μl media containing 5% FBS was added. 40 μl of media-containing test compound in 100% DMSO (prepared at 5× the dosing concentration) was added to the existing media resulting in a final DMSO concentration of 0.5%. Cells were incubated in the presence of a compound for 24 hrs @ 37° C., 5% CO2.
After 24 hrs, the abovementioned plates were centrifuged at 200×g for 10 min. The media was removed by gently inverting the plate and disposing of the media onto a paper towel. The plates were tapped gently to remove excess media. 200 μl lysis buffer was added to each well, and mixed by shaking at 300 rpm. The plates were incubated at room temperature for 30 min. The plates were centrifuged at 200×g for 10 min and 20 μl of lysis supernatant was removed for use in ELISA analysis to detect cell death.
20 μl of the cell lysis supernatant was placed into streptavidin-coated plates with 20 μl positive control and 20 μl incubation buffer negative control. Add 80 μl Immunoreagent (for DNA fragment detection) to each well. The wells were covered with foil adhesive and shaken at 300 rpm for 2 h at room temperature. The supernatant solution was removed and the wells were washed 3 times with 300 μl incubation buffer. 100 μl of ABTS detection substrate was added to each well. The wells were incubated on a plate shaker at 250 rpm for approximately 10-20 min. 100 μl ABTS of stop buffer was then added. […] The absorbance measures the colored product spectrophotometrically, correlating with apoptosis.
The percent increase in DNA fragmentation produced by compounds at a concentration of 1 and 10 μM were compared to background, and to the response produced by 500 nM staurosporin.

A431 cells [2] = test: Caspase 3/7 activity, measurement of apoptosis; assay type: cell-based; settings: combination effect greater than sum of single effects
[3] = Homo sapiens, A-431, A431 cells
[4] = A549, read-out: % Inc. Relative to Staurosporin (500 nM), DNA fragmentation
[5] = A549, read-out: % Inc. over Background, DNA fragmentation

SMILES	IC50 (A431 cells [1]; [3]) [nM]	A431 Cell Proliferation CI Value (A431 cells [1])	also measured
Cc1ccnc(NC(c2ccc3cccnc3c2O)c2c(F)c(F)c(OCC(F)(F)F)c(F)c2F)c1 (stereo not drawn) [AD4-13092]	1500	0.79	–
Oc1c(C(Nc2ccccn2)c2c(F)c(F)c(OCC(F)(F)F)c(F)c2F)ccc2cccnc12 (stereo not drawn) [AD4-13093]	1800	0.80	–
Oc1c(C(Nc2ccc(Cl)cn2)c2cc(Cl)cc(Cl)c2)ccc2cccnc12 (stereo not drawn) [AD4-13094]	1300	0.76	–
Cc1ccnc(NC(c2ccc(C(F)(F)F)cc2F)c2ccc3ccc(C)nc3c2O)c1 (stereo not drawn) [AD4-13096]	3000	0.61	–
Oc1c(C(Nc2ccc(F)cn2)c2cc(Cl)cc(Cl)c2)ccc2cccnc12 (stereo not drawn) [AD4-13098]	1600	0.86	–
Oc1c(C(Nc2ccc(F)cn2)c2ccc(F)cc2Cl)ccc2cccnc12 (stereo not drawn) [AD4-13099]	–	0.61	–
Cc1ccc2ccc(C(Nc3cccnc3)c3c(F)c(F)c(OCC(F)(F)F)c(F)c3F)c(O)c2n1 (stereo not drawn) [AD4-13101]	–	0.66	–
Oc1c(C(Nc2ccc(F)cn2)c2cc(Cl)ccc2Cl)ccc2cccnc12 (stereo not drawn) [AD4-13102]	1400	0.75	–
Oc1c(C(Nc2ccc(F)cn2)c2cccc(Cl)c2Cl)ccc2cccnc12 (stereo not drawn) [AD4-13103]	1400	0.79	–
Oc1c(C(Nc2ccc(F)cn2)c2ccccc2Cl)ccc2cccnc12 (stereo not drawn) [AD4-13104]	2800	0.67	–
Cc1cc(NC(c2ccc(C(F)(F)F)c(F)c2)c2ccc3cccnc3c2O)ncc1Cl (stereo not drawn) [AD4-13106]	650	0.75	–
Cc1cc(NC(c2ccc(Cl)c(C(F)(F)F)c2)c2ccc3cccnc3c2O)ncc1Cl (stereo not drawn) [AD4-13108]	1600	0.84	–
Oc1c(C(Nc2ccc(Cl)cn2)c2c(Cl)cccc2Cl)ccc2cccnc12 (stereo not drawn) [AD4-13109]	1500	0.88	–
Oc1c(C(Nc2ccc(Cl)cn2)c2cc(Cl)cc(Cl)c2Cl)ccc2cccnc12 (stereo not drawn) [AD4-13111]	740	0.95	–
Oc1c(C(Nc2ccc(F)cn2)c2c(F)cccc2Cl)ccc2cccnc12 (stereo not drawn) [AD4-13112]	2100	0.73	–
Oc1c(C(Nc2ccc(F)cn2)c2ccc(Cl)c(Cl)c2)ccc2cccnc12 (stereo not drawn) [AD4-13113]	–	0.59	–
Cc1cc(NC(c2cc(Cl)cc(Cl)c2)c2ccc3cccnc3c2O)ncc1F (stereo not drawn) [AD4-13114]	860	0.81	–
Cc1cc(NC(c2ccc(F)cc2Cl)c2ccc3cccnc3c2O)ncc1F (stereo not drawn) [AD4-13115]	1600	0.74	–
Cc1cc(NC(c2ccccc2Cl)c2ccc3cccnc3c2O)ncc1F (stereo not drawn) [AD4-13116]	–	0.52	–
Cc1cc(NC(c2ccc3cccnc3c2O)c2c(F)cccc2Cl)ncc1F (stereo not drawn) [AD4-13117]	1300	0.72	–
Cc1cc(NC(c2cc(Cl)ccc2Cl)c2ccc3cccnc3c2O)ncc1F (stereo not drawn) [AD4-13118]	–	0.60	–
Cc1cc(NC(c2ccc(C(F)(F)F)cc2)c2ccc3cccnc3c2O)ncc1Cl (stereo not drawn) [AD4-13121]	1900	0.75	–
Cc1cc(NC(c2cc(Cl)cc(Cl)c2)c2ccc3cccnc3c2O)ncc1Cl (stereo not drawn) [AD4-13122]	1600	0.84	–
Cc1cc(NC(c2ccc(Cl)cc2Cl)c2ccc3cccnc3c2O)ncc1Cl (stereo not drawn) [AD4-13123]	–	–	activation at 1 µM (A549 cells; [4]): 40%; activation at 10 µM (A549 cells; [4]): 51%; activation at 1 µM (A549 cells; [5]): 366%; activation at 10 µM (A549 cells; [5]): 476%
Cc1cc(NC(c2ccc(C(F)(F)F)cc2C(F)(F)F)c2ccc3cccnc3c2O)ncc1Cl (stereo not drawn) [AD4-13124]	1600	0.76	–

SMILES	IC50 (A431 cells [1]; [3]) [nM]	A431 Cell Proliferation CI Value (A431 cells [1])	also measured
Cc1cc(NC(c2ccc3cccnc3c2O)c2c(Cl)cccc2Cl)ncc1F (stereo not drawn) [AD4-13125]	1700	0.70	–
Oc1c(C(Nc2ccc(F)cn2)c2cc(Cl)cc(Cl)c2Cl)ccc2cccnc12 (stereo not drawn) [AD4-13132]	1900	0.82	–
Cc1cc(Cl)cnc1NC(c1ccccc1Cl)c1ccc2cccnc2c1O (stereo not drawn) [AD4-13134]	–	–	activation at 1 µM (A549 cells; [4]): 56%; activation at 10 µM (A549 cells; [4]): 46%; activation at 1 µM (A549 cells; [5]): 573%; activation at 10 µM (A549 cells; [5]): 469%
Cc1cc(Cl)cnc1NC(c1ccc(F)cc1Cl)c1ccc2cccnc2c1O (stereo not drawn) [AD4-13139]	–	0.75	IC50 (A431 cells [1]; A431 cells): 1400 nM
Oc1c(C(Nc2ncc(Cl)cc2F)c2cccc(C(F)(F)F)c2)ccc2cccnc12 (stereo not drawn) [AD4-13145]	2400	0.86	–
Cc1cc(Cl)cnc1NC(c1cccc(Cl)c1Cl)c1ccc2cccnc2c1O (stereo not drawn) [AD4-13147]	–	–	activation at 10 µM (A549 cells; [4]): 52%; activation at 1 µM (A549 cells; [5]): 406%; activation at 10 µM (A549 cells; [5]): 462%
Cc1nc(NC(c2ccc(Cl)cc2)c2ccc3cccnc3c2O)ccc1Cl (stereo not drawn) [AD4-13161]	–	–	activation at 1 µM (A549 cells; [4]): 25%; activation at 10 µM (A549 cells; [4]): 68%; activation at 1 µM (A549 cells; [5]): 254%
Oc1c(C(Nc2ccc(C(F)(F)F)cn2)c2cccc(C(F)(F)F)c2)ccc2cccnc12 (stereo not drawn) [AD4-13164]	–	–	activation at 1 µM (A549 cells; [4]): 38%; activation at 10 µM (A549 cells; [4]): 55%; activation at 1 µM (A549 cells; [5]): 390%; activation at 10 µM (A549 cells; [5]): 579%
Oc1c(C(Nc2cc(Cl)c(Cl)cn2)c2cccc(Cl)c2Cl)ccc2cccnc12 (stereo not drawn) [AD4-13172]	–	–	activation at 1 µM (A549 cells; [4]): 32%; activation at 10 µM (A549 cells; [4]): 70%; activation at 1 µM (A549 cells; [5]): 355%; activation at 10 µM (A549 cells; [5]): 782%
Oc1c(C(Nc2cc(Cl)c(Cl)cn2)c2ccc(Cl)c(Cl)c2)ccc2cccnc12 (stereo not drawn) [AD4-13177]	2000	0.9	–
Oc1c(C(Nc2ncc(F)cc2F)c2cc(Cl)cc(Cl)c2Cl)ccc2cccnc12 (stereo not drawn) [AD4-13181]	–	–	Caspase 3/7 Activity Synergy with Tarceva (A431 cells [2]): Yes
Oc1c(C(Nc2cc(Cl)c(Cl)cn2)c2ccc(Cl)cc2)ccc2cccnc12 (stereo not drawn) [AD4-13187]	–	–	activation at 1 µM (A549 cells; [4]): 47%; activation at 10 µM (A549 cells; [4]): 62%; activation at 1 µM (A549 cells; [5]): 388%; activation at 10 µM (A549 cells; [5]): 543%
Cc1c(Cl)cnc(NC(c2cccc(Cl)c2Cl)c2ccc3cccnc3c2O)c1F (stereo not drawn) [AD4-13192]	–	–	Caspase 3/7 Activity Synergy with Tarceva (A431 cells [2]): Yes
COc1ccc(C(Nc2ncc(Cl)cc2C)c2ccc3cccnc3c2O)cc1OC (stereo not drawn) [AD4-13193]	–	0.92	–
COc1ccc(C(Nc2cc(C)c(Cl)cn2)c2ccc3cccnc3c2O)cc1OC (stereo not drawn) [AD4-13194]	–	0.97	–
COc1ccc(C(Nc2cc(Cl)c(Cl)cn2)c2ccc3cccnc3c2O)cc1OC (stereo not drawn) [AD4-13195]	–	0.81	–
COc1ccc(C(Nc2cc(C)c(Cl)cn2)c2ccc3cccnc3c2O)c(OC)c1OC (stereo not drawn) [AD4-13196]	–	0.69	–
COc1ccc(C(Nc2cc(Cl)c(Cl)cn2)c2ccc3cccnc3c2O)c(OC)c1OC (stereo not drawn) [AD4-13197]	–	0.63	–
Cc1cc(Cl)cnc1NC(c1ccc(F)cc1Cl)c1ccc2cccnc2c1O (stereo not drawn) [AD4-13198]	–	0.87	IC50 (A431 cells [1]; A431 cells): 3000 nM
Cc1c(Cl)cnc(NC(c2ccc(Cl)cc2Cl)c2ccc3cccnc3c2O)c1F (stereo not drawn) [AD4-13199]	2000	1.1	–
Cc1ccc2ccc(C(Nc3ncc(Cl)cc3C)c3ccc(Cl)cc3Cl)c(O)c2n1 (stereo not drawn) [AD4-13200]	1500	0.97	–
Cc1cc(Cl)ccc1NC(c1ccc(Cl)cc1Cl)c1ccc2cccnc2c1O (stereo not drawn) [AD4-13201]	2000	0.82	–
Cc1nc(NC(c2ccc(Cl)c(Cl)c2)c2ccc3cccnc3c2O)c(Cl)cc1Cl (stereo not drawn) [AD4-13202]	–	0.87	–
Oc1c(C(Nc2cc(Cl)c(Cl)cn2)c2ccc(Cl)c(F)c2)ccc2cccnc12 (stereo not drawn) [AD4-13224]	–	–	activation at 1 µM (A549 cells; [4]): 25%; activation at 10 µM (A549 cells; [4]): 59%; activation at 1 µM (A549 cells; [5]): 296%; activation at 10 µM (A549 cells; [5]): 662%

From patent publication US9023354B2, “Combination therapy with MDM2 and EFGR inhibitors” (priority 2010, dated 2015)
